Results on three compounds are retold here after patent publication EP3498270A1, “SLOW RELEASE FORMULATIONS OF CELL CYCLE REGULATORS AND ANTI-CANCER AGENTS FOR LOCAL TREATMENT OF SOLID CANCER” (Urogen Pharma Ltd., priority 2017, dated 2019).

The test system of series [1] is UMUC-3 cells. As to the kind of experiment: Cell cytotoxicity / apoptosis (Annexin V FITC and PI staining, flow cytometry). Conditions: 1mM HU 20 hours, wash, after 2 hours 10µM MMC 8 hours; 48 hours after HU withdrawal. On the technique in general: A flow cytometer gives signals particle by particle.
Series [2] has as its system UMUC-3 cells. As to the kind of experiment: XTT cell viability assay. The series is classed as cell-based, human. Particulars: for viability at 1000 µM / EC50: Homo sapiens. The method, then: Cells were treated with 0-16mM HU/ Control (DMSO or RPMI medium only) for up to 20 hours. […] XTT assay for cytotoxicity was then performed and plates were analyzed in an ELISA reader at wave length of 490nm.
The methods used were as described in the other examples. Briefly, UMUC-3 cells were cultured in 96 well microculture plates. Cells were pretreated with 1mM HU (or DMSO- vehicle control) for 2 hours. […] The percentage of viable cells presented in the figures and table was calculated from untreated cells with viability of 100%.
(In general: Tetrazolium dyes change colour on reduction, which living cells bring about.)

Series [3] deals with RT-4 cells. Description: Cell cycle distribution (PI staining, flow cytometry). The series is classed as cell-based, human. Particulars: 1mM HU for 20 hours, 4 hours from HU withdrawal. The method, then: (§1) A Cyan Flow cytometer was used for determining DNA content and cell cycle distribution of UMUC-3 and RT-4 cells. Cells were seeded in 6 well plates (10^6 cells/well) and incubated overnight. Cells were then cultured with cell cycle modulator (0.1-15mM HU or 0.25µM PD0332991) or with DMSO (vehicle control) for up to 20 hours (HU) or 24 hours (PD0332991). Then, the HU, PD0332991 (or DMSO) was washed and replaced by fresh media and cells were fixed at different time points following washes. The fixation was done by a fixation buffer that purchased from ENCO (Cayman). Minimum 2 hours after the fixation, cells were washed and labeled with propidium iodide (PI) for 15 min in the dark. Cells were analyzed by flow cytometry (PI staining was detected in FL3, […] laser).
(§2) Unless otherwise indicated, methods were as described in Example 1. In order to investigate the influence of HU on cell cycle distribution in bladder cancer cell lines, UMUC-3 and RT-4 cells were treated with 1mM HU (or DMSO for vehicle control) for 20 hours. Cell cycle distribution was observed immediately after HU exposure and 2, 4, 6, 8, and 10 hours following HU withdrawal.

In series [4] the test system is UMUC-3 cells. The series is described as above. The series is classed as cell-based, human. The method, then:
as §1, §2

Series [5] relates to RT-4 cells. As to the kind of experiment: Cell cytotoxicity / apoptosis (Annexin V FITC and PI staining, flow cytometry). Particulars: 1mM HU 20 hours, wash; for percentages of apoptotic cells: after 2 hours 10µM MMC 8 hours, 48 hours after HU withdrawal; for late apoptosis: after 2 hours Gem 5µM 8 hours, 72 hours from HU washes. The series is classed as cell-based, human. The procedure:
After 24 hours to 5 days from HU washes, cells were stained with Annexin V FITC and PI for identifying apoptotic cells according to standard protocols.

The test system of series [6] is RT-4 cells. As to the kind of experiment: XTT cell viability assay. The series is classed as cell-based. Particulars: Homo sapiens, RT-4, read-out: MMC EC50 concentration value.

Like-named read-outs stand apart in the source and are kept apart here.

What is called viability is a per cent measure of how many cells are alive, often set against a control. As for `NC(=O)NO` [HU, Hydroxyurea], the results for the “percentages of apoptotic cells” value in the series on UMUC-3 cells [1] and with RT-4 cells [5] were 8.1% and 4.8%, respectively. Moreover, the viability at 1000 µM in the series on UMUC-3 cells [2] (UMUC3, 1mM HU 20 hours, wash, after 2 hours Gem (EC50) 8 hours) came out at 71.3%; in the series on UMUC-3 cells [2] (UMUC3, short exposure: 1mM HU 2 hours, 2 hours wash, 20µM MMC 2 hours, analysed after 48 hours), 86.1%. The “percentage of cells at the S phase” value in the series with RT-4 cells [3] is recorded as 48.6%; in the series with UMUC-3 cells [4] (1mM HU for 20 hours, 4 hours from HU withdrawal) it was 57.0%. The “increase in S phase accumulation” value is recorded as “approximately 6 fold” with RT-4 cells [3] (versus DMSO control) and “approximately 3 fold” in the series with UMUC-3 cells [4] (1mM HU for 20 hours, versus DMSO control, 4 hours from HU withdrawal). The S phase accumulation result in the series with UMUC-3 cells [4] (HU 0.5 to 4mM for 20 hours, 6 hours after the HU wash) is “greater than 50%”. Further, in the series with UMUC-3 cells [4] (HU concentrations lower than 0.1mM), the “influence on cell cycle distribution” value is listed as “no significant influence”. This compound also gave a late apoptosis with RT-4 cells [5] of 5.9%.
Consider `CO[C@@]12[C@H](COC(N)=O)C3=C(C(=O)C(C)=C(N)C3=O)N1C[C@@H]1N[C@@H]12` [MMC, Mitomycin C], for which the “percentages of apoptotic cells” value in the series on UMUC-3 cells [1] amounted to 21.4%; in the series on RT-4 cells [5], 13.4%. Besides, the EC50 in the series on RT-4 cells [6] is 5 to 20 µM; in the series with UMUC-3 cells [2] (UMUC3, 2 h, read-out: MMC EC50 value) it was 20 µM; in the series on UMUC-3 cells [2] (UMUC3, read-out: MMC EC50 concentration value) it was 10 µM.
Regarding `Nc1ccn([C@@H]2O[C@H](CO)[C@@H](O)C2(F)F)c(=O)n1` [Gem, Gemcitabine], the viability in the series on UMUC-3 cells [2] (1mM HU 20 hours, wash, after 2 hours Gem (EC50) 8 hours) turned out to be 50.9%. This compound also gave a late apoptosis in the series on RT-4 cells [5] of 22.2%.
